The source of these data is patent US7786129B2, “Piperazine derivatives of dialkyl oxindoles” (Egis Gyogyszergyar Nyrt, priority 2004, dated 2010).

In one data set the test system is Male Wistar rats. As to the kind of experiment: Vogel's drinking conflict test. Type of data set: in vivo. The note with it: ip, 0.5 h, rat, i.p. 30 min prior to test, increase in tolerated shocks, read-out: MED. How it is done:
(§1) The anxiolytic effect of the compounds according to the invention was investigated on rats according to Vogel's drinking conflict test and elevated plus-maze test (S. Pelow, P. Chopin, S. E. File, J. Briley: Neurosci. Methods 14, p. 149 (1985)).
Male Wistar rats weighing 160-180 g were used for the experiment. The animals were deprived of drinking water for 48 hours and fasted for 24 hours prior to test. The test compounds or vehicle were administered intraperitoneally, 30 min prior to test. […] Following every 20 licks electric shocks (0.7 mA) were applied through the drinking spout during the 5 min test period. The number of punished licks were recorded. The effect of the test compounds was expressed as % increase in numbers of tolerated shocks. Minimal effective doses (MED) were determined for each compound.

In a further data set the test system is Male Sprague-Dawley rats. The experiment in a line: Elevated plus-maze test in rats. Type of data set: in vivo. The conditions noted are these: minimal effective dose, rat, p.o., 60 min after treatment, time in or entries into open arms.
From the text: as §1
A wooden cross elevated to 50 cm above the floor, 15 cm wide with 100 cm long arms was used for the experiments. The sides and ends of two opposite arms of the cross were equipped with 40 cm high walls, however, the arms were open to the 15×15 cm central area (closed arms). The two other opposite arms were not encircled by walls (open arms).
Male Sprague-Dawley rats weighing 200-220 g were used for the experiments. The animals were placed in the central area of the equipment 60 min after treatment and the following four parameters have been observed for the 5 min test time: • time spent in the open arms (sec), • time spent in the closed arms (see), • number of entries into the open arms, • number of entries into the closed arms.
The effect was expressed as percent increase in either the time spent in the open arms or number of entries into the open arms. MEDs (minimal effective doses) were determined for each compound.

The target in another data set is T1, 5-HT1A receptor (Rattus norvegicus, UniProt P19327).
T1 construct: from tissue; host or cells: rat frontal cortex membrane preparation
T1 sequence (P19327 1-422): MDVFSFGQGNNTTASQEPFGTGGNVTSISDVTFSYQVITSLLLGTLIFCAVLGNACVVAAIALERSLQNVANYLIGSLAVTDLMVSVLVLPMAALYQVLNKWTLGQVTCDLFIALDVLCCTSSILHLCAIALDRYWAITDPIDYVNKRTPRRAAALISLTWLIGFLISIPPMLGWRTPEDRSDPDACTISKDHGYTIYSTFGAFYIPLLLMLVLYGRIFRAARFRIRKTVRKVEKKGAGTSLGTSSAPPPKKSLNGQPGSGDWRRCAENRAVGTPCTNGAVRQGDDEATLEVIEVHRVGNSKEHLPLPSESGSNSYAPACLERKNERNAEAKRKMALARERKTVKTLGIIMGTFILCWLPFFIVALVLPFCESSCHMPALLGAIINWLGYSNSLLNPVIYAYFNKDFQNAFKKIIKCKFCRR
The experiment in a line: 5-HT1A receptor binding. The note with it: rat frontal cortex preparation, ligand tritiated 8-OH-DPAT. How it is done: (§2) Receptor bindings—with the exception of the 5-HT2C receptor binding—were determined by using cerebral region preparations of male Wistar rats weighing 120-200 g. For the preparation of 5-HT1A receptor binding frontal cortex preparations were used. The al receptor binding studies were performed from isolated frontal cortex pre-parations. For the 5-HT2C receptor binding experiments choroid plexus of pigs was used. The protein contents of membrane preparations were determined by the method of Lowry (1951).
5-HT1A receptor binding was measured according to the method of Peroutka (Peroutka, S. J.: J. Neurochem. 47, p. 529 (1986)). The ligand was tritiated 8-hydroxy-N,N-dipropyl-2-aminotetraline (8-OH-DPAT). For the determination of non-specific binding 10 μM serotonin was applied. Incubation […] volume was 250 μl. Incubation was carried out at a temperature of 25 C for 30 minutes. The reaction was terminated by the addition of 9 ml of ice-cold 50 mM TRIS-HCl (pH 7.7) buffer and quick vacuum filtration using Whatman GFIB fibreglass filtering paper. Radioactivity of the filter boards was measured by liquid scintillation spectrometry.
(§3) The IC50 value is the value of concentration where the difference between total and non-specific binding is 50% in the presence of a determined concentration of a specific ligand.

A further data set concerns the target T2, 5-HT2C receptor (Sus scrofa, UniProt K7GSR7).
T2 construct: from tissue; host or cells: pig choroid plexus membrane preparation
T2 sequence (K7GSR7 1-457): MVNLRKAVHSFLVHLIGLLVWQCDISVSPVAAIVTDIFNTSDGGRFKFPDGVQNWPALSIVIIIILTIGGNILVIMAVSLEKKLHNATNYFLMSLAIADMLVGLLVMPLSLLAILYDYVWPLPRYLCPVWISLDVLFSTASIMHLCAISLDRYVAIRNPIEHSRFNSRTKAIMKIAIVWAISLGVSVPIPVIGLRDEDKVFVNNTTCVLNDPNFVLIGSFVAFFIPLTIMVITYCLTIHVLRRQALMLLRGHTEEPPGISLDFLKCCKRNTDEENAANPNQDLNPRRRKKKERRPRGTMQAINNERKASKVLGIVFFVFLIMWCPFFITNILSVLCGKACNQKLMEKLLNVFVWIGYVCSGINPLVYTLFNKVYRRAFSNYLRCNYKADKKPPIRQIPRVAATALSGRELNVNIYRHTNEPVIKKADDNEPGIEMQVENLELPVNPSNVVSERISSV
As to the kind of experiment: 5-HT2C receptor binding. Also on record: species or system pig. The conditions noted are these: choroid plexus of pigs, ligand 3H-mesulergin 1.0 nM. How it is done:
as §2
(§4) In the course of 5-HT2C and α1 receptor binding experiments the ligands were ^3H-mesulergin (1.0 nM) and ^3H-prazosine (0.3 nM), respectively. The non-specifically binding ligands were mianserine (1 μM and prazosine (1 μM), respectively.
as §3

The next data set has as its target α1 receptor. As to the kind of experiment: α1 receptor binding experiment. The note with it: rat isolated frontal cortex preparation, ligand 3H-prazosine 0.3 nM. How it is done:
as §2, §4, §3

The next data set relates to Male Mongolian gerbils. As to the kind of experiment: Neuroprotective effect in global ischemia test (bilateral carotid occlusion). Type of data set: in vivo, Mongolian gerbil. The note with it: gerbil; for Effect (%): change of CA1 cell loss score vs. control, 30 mg/kg i.p.; for CA1 cell loss (score): 30 mg/kg i.p. 45 min after surgery, scored 4 days after surgery on 6-point scale. How it is done: Male Mongolian gerbils weighing 60-90 g were used as test animals. The test compounds were administered intraperitoneally at a dose of 30 mg/kg 45 min after surgery. Test substances were suspended in 0.4% methylcellulose solution. In diethylether narcosis, the right and left common carotid arteries were exposed through an anterior midline cervical incision and isolated from the vagus nerves and the surrounding tissues. Full arrest of carotid blood flow was achieved by tightening an aneurysm clip for 3 min. During surgery the body temperature of the animals was kept at the individual preoperative level (37.5±0.5° C.) with the help of a heating pad and a heating lamp.
4 days after the surgery the animals were anaesthetized with 60 mg/kg i.p nembutal (10 ml/kg) and perfused through the heart first with saline then with a fixative solution containing 0.1% glutaraldehyde, 4% paraformaldehyde and 0.2% picric acid in 0.1 M phosphate buffer (pH 7.4) for 30 min. The brain was removed from the skull and post fixed for at least 1 week at 4° C. in the same fixative solution.
Alternate coronal sections of 60 μm thickness were cut from different levels of the dorsal hippocampus by a microtome. The sections were repeatedly washed in 0.1 M phosphate buffer (pH 7.4) and stained by silver impregnation. The sections were stored twice in a preparatory solution (2% sodium hydroxide and 0.875% ammonium hydroxide solution) for 5 minutes, impregnated for 10 minutes in 0.875% ammonium hydroxide and 0.5% silver nitrate solution) and placed into a washing solution (0.5% sodium carbonate and 0.01% ammonium nitrate dissolved in a 29.1% aqueous ethanol solution) twice for 2 minutes and once for one minute. The slices were then developed in 9.9% ethanol solution containing 1.5% formaldehyde and 0.01% ammonium nitrate and fixed three times for 3 minutes in a 0.5% acetic acid solution. The stained slices were placed in 0.1M phosphate buffer (pH 7.4) and chrome gelatine, applied on plates, dehydrated and treated with xylol. The cover plates were fixed with DPX glue (Fluka).
The sections were examined under light microscopy and the overall neuronal damage in the hippocampal CA1 subfield in both hippocampi was scored on a 6-point scale: (O) undamaged, (1)—0-10%; (2)—10-30%; (3)—30-50%; (4)—50-70%; (5)—70-90%; (6)—90-100% cell loss. Group differences between drug-treated and vehicle-treated groups were statistically analysed by Mann-Whitney U-test.

For data set [1], the system named is dopamine release in the internal ear of guinea pig. As to the kind of experiment: Dopamine release in the internal ear (cochlear preparations, oxygen and glucose deprivation). The conditions noted are these: guinea pig cochlear preparation, second stimulation after oxygen and glucose deprivation, FIG. 1. How it is done:
The study of the effect on the hearing impairment and tinnitus were performed in guinea pigs weighing 145-375 g (Toxicoop, Hungary) according to the method of Gáboiján et al. (Gáboiján, A., Lendvai, B, Vizi, E. S.: Neuroscience 90, p. 131 (1999)). The dopamine release in the internal ear, as a correlate of hearing impairment, was measured in samples from cochlear preparations (lateral olivocochlear efferents) with high-pressure liquid chromatography (HPLC). The samples were collected in every 3 minutes during 60 minutes (20 fractions). Electric field stimulation was generally applied during the 3rd and 13th fraction (S1, S2, 2 Hz, 360 shocks, 60 V; Grass Medical Instruments). In the respective experiments ischemia (oxygen and glucose deprivation, OGD) was mimicked by the perfusion of a buffer saturated with 100% N2 and containing sacharose instead of glucose. Results are expressed as a percent of dopamine release per fraction. Statistical analysis was performed by analysis of variance (ANOVA) followed by Tukey test.
From the thus-obtained results the effect of the compound of Example 76 on the dopamine release in the internal ear of guinea pig is shown (FIG. 1). The initial stimulation (SI) evoked considerable dopamine release. […] This effect can be interpreted as an inhibition of hearing impairment.

Where a name gives a salt, the structure may show the parent alone. Marks after values point to notes of the source that are not given here. Some results are limits rather than exact numbers.

Consider `CCC1(CCCCN2CCN(c3ccc(F)cc3)CC2)C(=O)Nc2ccccc21` (stereo not drawn) [Example 95, 3-Ethyl-3-{4-[4-(4-fluorophenyl)-piperazin-1-yl]-butyl}-1,3-dihydro-2H-indol-2-one], for which the melting point (as a rule, the temperature of the solid-liquid transition) was 118 to 119 °C. Besides, the minimal effective dose in the data set on Male Wistar rats was 10 mg/kg. In the data set on Male Sprague-Dawley rats, the MED was 0.1 mg/kg p.o. Further, on 5-HT1A receptor, the IC50 (commonly the concentration that gives 50% inhibition) is more than 300 nM.
The matching figures for `CCC1(CCCCN2CCN(c3ccc(Cl)cc3)CC2)C(=O)Nc2c(Cl)cc(Cl)cc21` (stereo not drawn) [Example 87, 5,7-Dichloro-3-{4-[4-(4-chlorophenyl)-piperazin-1-yl]-butyl}-3-ethyl-1,3-dihydro-2H-indol-2-one]: 152 to 154 °C, 5 mg/kg, 0.3 mg/kg p.o and more than 400 nM.
Turning to `CCC1(CCCCN2CCN(c3cccc(Cl)c3)CC2)C(=O)Nc2ccc(C)cc21` (stereo not drawn) [Example 78, 3-{4-[4-(3-Chlorophenyl)-piperazin-1-yl]-butyl}-3-ethyl-5-methyl-1,3-dihydro-2H-indol-2-one], the melting point fell in the range of 142 to 144 °C. For the same compound, the IC50 on 5-HT2C receptor was less than 100 nM. The IC50 on α1 receptor was less than 100 nM. On 5-HT1A receptor, this compound returned an IC50 of more than 200 nM.
On to `CCC1(CCCCN2CCN(c3ccccc3)CC2)C(=O)Nc2ccccc21` (stereo not drawn) [Example 68, 3-[4-(4-Phenylpiperazin-1-yl)-butyl]-3-ethyl-1,3-dihydro-2H-indol-2-one monooxalate], for which the half-maximal inhibitory concentration (IC50) at 5-HT2C receptor is less than 100 nM; on 5-HT1A receptor it was more than 200 nM. Moreover, the minimal effective dose in the data set with Male Wistar rats was found to be 10 mg/kg.
`CCC1(CCCCN2CCN(c3ccc(Cl)cc3)CC2)C(=O)Nc2ccccc21` (stereo not drawn) [Example 76, 3-{4-[4-(4-Chlorophenyl)-piperazin-1-yl]-butyl}-3-ethyl-1,3-dihydro-2H-indol-2-one] registered a melting point of 145 to 146 °C. Besides, in the data set with Male Mongolian gerbils, the “Effect (%)” value is on record as −52% and the “CA1 cell loss (score)” value is listed as 2.40* score. In addition, the minimal effective dose with Male Wistar rats is 10 mg/kg. For the same compound, the “dopamine release in the internal ear” value in data set [1] was “the release stabilized at a significantly higher level”.
As to `CCC1(CCCCN2CCN(c3cccc(Cl)c3)CC2)C(=O)Nc2ccc(F)cc21` (stereo not drawn) [Example 85, 3-{4-[4-(3-Chlorophenyl)-piperazin-1-yl]-butyl}-3-ethyl-5-fluoro-1,3-dihydro-2H-indol-2-one mono-hydrochloride], in the data set on Male Mongolian gerbils, the “Effect (%)” value was −46% and the “CA1 cell loss (score)” value is recorded as 2.70* score. For the same compound, the minimal effective dose in the data set with Male Wistar rats is 5 mg/kg. Further, the MED in the data set on Male Sprague-Dawley rats stood at 0.1 mg/kg p.o.
